Source: the NIST ThermoML archive (doi:10.1021/je050001c)

Conditions: 101.33 kPa, Liquid; for viscosity: Falling or rolling sphere viscometry

CCCCOC(=O)CCC [butyl butanoate]
Conditions	mass density [kg/m3]	viscosity [mPa·s]
293.15 K	872.45	0.948
298.15 K	869.14	0.876
303.15 K	866.1	0.812
308.15 K	862.19	0.755
313.15 K	858.94	0.705
318.15 K	854.31	0.659
323.15 K	851.47	0.618
328.15 K	848.01	0.581
333.15 K	846.22	0.548
338.15 K	844.03	0.517
343.15 K	841.47	0.486

CC/C=C\CCOC(=O)C(C)C [cis-3-hexenyl isobutyrate]
Conditions	mass density [kg/m3]	viscosity [mPa·s]
293.15 K	885.08	1.024
298.15 K	878.12	0.941
303.15 K	873.61	0.868
308.15 K	870.34	0.804
313.15 K	865.22	0.741
318.15 K	861.49	0.69
323.15 K	857.38	0.65
328.15 K	852.44	0.606
333.15 K	848.44	0.56
338.15 K	845.31	0.535
343.15 K	840.09	0.503

CCOC(C)=O [ethyl acetate]
Conditions	mass density [kg/m3]	viscosity [mPa·s]
293.15 K	900.48	0.443
298.15 K	894.81	0.421
303.15 K	887.14	0.399
308.15 K	882.21	0.381
313.15 K	878.92	0.363
318.15 K	874.51	0.346
323.15 K	870.39	0.33
328.15 K	867.13	0.315
333.15 K	864.72	0.301
338.15 K	861.41	0.288
343.15 K	858.36	0.275

CCCC(=O)OCC [ethyl butanoate]
Conditions	mass density [kg/m3]	viscosity [mPa·s]
293.15 K	876.91	0.662
298.15 K	874.42	0.62
303.15 K	870.13	0.583
308.15 K	866.21	0.549
313.15 K	864.31	0.519
318.15 K	861.32	0.491
323.15 K	858.43	0.465
328.15 K	854.44	0.442
333.15 K	853.89	0.42
338.15 K	851.32	0.4
343.15 K	850.04	0.382

CCCCOC(C)=O [butyl ethanoate]
Conditions	mass density [kg/m3]	viscosity [mPa·s]
293.15 K	881.04	0.732
298.15 K	876.45	0.677
303.15 K	871.3	0.628
308.15 K	866.25	0.585
313.15 K	861.84	0.546
318.15 K	857.32	0.512
323.15 K	854.61	0.481
328.15 K	850.78	0.453
333.15 K	847.92	0.428
338.15 K	844.39	0.405
343.15 K	841.77	0.384

CC/C=C\CCOC(C)=O [(Z)-3-hexenyl acetate]
Conditions	mass density [kg/m3]	viscosity [mPa·s]
293.15 K	900.82	0.893
298.15 K	897.14	0.823
303.15 K	893.14	0.763
308.15 K	890.28	0.708
313.15 K	886.19	0.66
318.15 K	881.43	0.616
323.15 K	877.89	0.576
328.15 K	875.21	0.542
333.15 K	871.43	0.509

CCOC(=O)CC [ethyl propanoate]
Conditions	mass density [kg/m3]	viscosity [mPa·s]
293.15 K	891.62	0.523
298.15 K	884.1	0.492
303.15 K	879.31	0.464
308.15 K	874.12	0.441
313.15 K	870.61	0.418
318.15 K	867.34	0.398
323.15 K	864.33	0.378
328.15 K	860.89	0.36
333.15 K	858.14	0.344
338.15 K	856.81	0.329
343.15 K	853.48	0.315

CCC/C=C/COC(C)=O [(E)-2-hexenyl acetate]
Conditions	mass density [kg/m3]	viscosity [mPa·s]
293.15 K	897.84	0.901
298.15 K	894.32	0.831
303.15 K	891.78	0.77
308.15 K	888.46	0.715
313.15 K	884.35	0.666
318.15 K	880.19	0.622
323.15 K	876.14	0.582
328.15 K	872.81	0.547
333.15 K	867.49	0.514

CCOC=O [ethyl methanoate]
Conditions	mass density [kg/m3]	viscosity [mPa·s]
293.15 K	917.82	0.402
298.15 K	912.06	0.381
303.15 K	907.68	0.362
308.15 K	899.54	0.345
313.15 K	891.5	0.329
318.15 K	887.41	0.314
323.15 K	882.14	0.3
